US6686382B2, “Sulfonamides and derivatives thereof that modulate the activity of endothelin” (Encysive Pharmaceuticals Inc., priority 1999, dated 2004)
Counter-ions that a name gives are not always drawn.

How the values were obtained:
human ETA receptors = biological target: T1, human ETA receptors (Homo sapiens, UniProt P25101); assay: Endothelin binding inhibition, Binding Test #1: inhibition of binding to ETA receptors (TE 671 cell membranes); conditions: relative to N-(4-chloro-3-methyl-5-isoxazolyl)-2-{[3,4-(methylenedioxy)-6-methylphenyl)acetyl]-thiophene-3-sulfonamide (= 1.0)
T1 construct: endogenous in cells; host or cells: TE 671 cells (ATCC HTB 139), membrane preparation
T1 sequence (P25101 21-427): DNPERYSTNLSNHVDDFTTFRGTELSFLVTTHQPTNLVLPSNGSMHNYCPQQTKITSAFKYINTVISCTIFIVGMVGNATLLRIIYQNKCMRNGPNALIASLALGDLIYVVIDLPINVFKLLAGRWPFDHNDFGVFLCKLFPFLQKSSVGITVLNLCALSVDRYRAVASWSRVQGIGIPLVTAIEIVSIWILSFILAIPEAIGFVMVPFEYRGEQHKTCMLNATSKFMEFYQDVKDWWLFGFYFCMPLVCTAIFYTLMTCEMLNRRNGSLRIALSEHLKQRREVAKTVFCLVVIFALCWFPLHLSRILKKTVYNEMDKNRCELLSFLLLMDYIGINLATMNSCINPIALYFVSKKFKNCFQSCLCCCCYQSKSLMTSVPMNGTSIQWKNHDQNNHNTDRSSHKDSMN
Text: Compounds that are potential endothelin antagonists are identified by testing their ability to compete with ^125I-labeled ET-1 for binding to human ETA receptors or ETB receptors present on isolated cell membranes. The effectiveness of the test compound as an antagonist or agonist of the biological tissue response of endothelin can also be assessed by measuring the effect on endothelin induced contraction of isolated rat thoracic aortic rings. The ability of the compounds to act as antagonists or agonists for ETB receptors can be assess by testing the ability of the compounds are to inhibit endothelin-1 induced prostacyclin release from cultured bovine aortic endothelial cells.
A. Endothelin Binding Inhibition—Binding Test #1: Inhibition of Binding to ETA Receptors
TE 671 cells (ATCC Accession No. HTB 139) express ETA receptors. These cells were grown to confluence in T-175 flasks. Cells from multiple flasks were collected by scraping, pooled and centrifugedfor 10 min at 190×g. The cells were resuspended in phosphate buffered saline (PBS) containing 10 mM EDTA using a Tenbroeck homogenizer. The suspension was centrifuged at 4° C. at 57,800×g for 15 min, the pellet was resuspended in 5 ml of buffer A (5 mM HEPES buffer, pH 7.4 containing aprotinin (100 KIU/ml)) and then frozen and thawed once. 5 ml of Buffer B (5 mM HEPES Buffer, pH 7.4 containing 10 mM MnCl2 and 0.001% deoxyribonuclease Type 1) was added, the suspension mixed by inversion and then incubated at 37° C. for 30 minutes. The mixture was centrifuged at 57,800×g as described above, the pellet washed twice with buffer A and then resuspended in buffer C (30 mM HEPES buffer, pH 7.4 containing aprotinin (100 KIU/ml) to give a final protein concentration of 2 mg/ml and stored at −70° C. until use.
The membrane suspension was diluted with binding buffer (30 mM HEPES buffer, pH 7.4 containing 150 mM NaCl, 5 mM MgCl2, 0.5% Bacitracin) to a concentration of 8 μg/50 μl. ^125I-endothelin-1 (3,000 cpm, […]) was added to 50 μL of either: (A) endothelin-1 (for non specific binding) to give a final concentration 80 nM); (B) binding buffer (for total binding); or (C) a test compound (final concentration 1 nM to 100 μM). The membrane suspension (50 μL), containing up to 8 μg of membrane protein, was added to each of (A), (B), or (C). Mixtures were shaken, and incubated at 4° C. for 16-18 hours, and then centrifuged at 4° C. for 25 min at 2,500×g. Alternatively, the incubation was conducted at 24° C. […] This, must be kept in mind when comparing IC50 concentrations among compounds provided herein.
The supernatant, containing unbound radioactivity, was decanted and the pellet counted on a Genesys multiwell gamma counter. The degree of inhibition of binding (D) was calculated according to the following equation: [formula]
Each test was generally performed in triplicate.

Row | SMILES | melting point | ETA ACTIVITY (ETA antagonist activity relative to reference compound) (human ETA receptors)
1 | Cc1cc(C)c(NC(=O)c2sccc2S(=O)(=O)Nc2onc(C)c2Cl)c(C(C)O)c1 (stereo not shown) (as salt: Na) [Compound 18, 3-{[(4-chloro-3-methyl-5-isoxazolyl)amino]sulfonyl}-N-[2-(1-hydroxyethyl)-4,6-dimethylphenyl]-2-thiophene carboxamide] | 147 to 154 °C | 
2 | Cc1cc(-c2ncco2)cc(C)c1NC(=O)c1sccc1S(=O)(=O)Nc1onc(C)c1Cl [Compound 52, 3-{[(4-chloro-3-methyl-5-isoxazolyl)amino]sulfonyl}-N-[2,6-dimethyl-4-(1,3-oxazol-2-yl)phenyl]-2-thiophenecarboxamide] | 205 to 207 °C | 1.1
3 | COC(=O)c1c(C)cc(C)c(NC(=O)c2sccc2S(=O)(=O)Nc2onc(C)c2Cl)c1C [3-{[(4-chloro-3-methyl-5-isoxazolyl)amino]sulfonyl}-N-(3-methoxycarbonyl-2,4,6-trimethylphenyl)-2-thiophenecarboxamide] |  | 4.7
4 | Cc1cc(C)c(NC(=O)c2sccc2S(=O)(=O)Nc2onc(C)c2Cl)c(C(=O)N(C)CC(C)(C)C)c1 [Compound 40, 3-{[(4-chloro-3-methyl-5-isoxazolyl)amino]sulfonyl}-N-(2,4-dimethyl-6-{[methyl(2,2-dimethylpropyl)amino]carbonyl}phenyl)-2-thiophenecarboxamide] | 174 to 176 °C | 2.7
5 | Cc1cc(C)c(NC(=O)c2sccc2S(=O)(=O)Nc2onc(C)c2Cl)c(C(C)O)c1 (stereo not shown) [Compound 18, 3-{[(4-chloro-3-methyl-5-isoxazolyl)amino]sulfonyl}-N-[2-(1-hydroxyethyl)-4,6-dimethylphenyl]-2-thiophene carboxamide] |  | 26.4
6 | Cc1cc(C)c(OCC2CC2)c(C)c1NC(=O)c1sccc1S(=O)(=O)Nc1onc(C)c1Cl [Compound 26, 3-{[(4-chloro-3-methyl-5-isoxazolyl)amino]sulfonyl}-N-{3-[(cyclopropylmethyl)oxy]-2,4,6-trimethylphenyl}-2-thiophenecarboxamide] | 155 to 158 °C | 9.4
7 | Cc1cc(C)c(NC(=O)c2sccc2S(=O)(=O)Nc2onc(C)c2Cl)c(C)c1 [3-{[(4-chloro-3-methyl-5-isoxazolyl)amino]sulfonyl}-N-(2,4,6-trimethylphenyl)-2-thiophenecarboxamide] |  | 2.4
8 | Cc1cc(C)c(NC(=O)c2sccc2S(=O)(=O)Nc2onc(C)c2Cl)c(C(N)=O)c1 [3-{[(4-chloro-3-methyl-5-isoxazolyl)amino]sulfonyl}-N-(2-carbamoyl-4,6-dimethylphenyl)-2-thiophenecarboxamide] |  | 1.04
9 | Cc1cc(C)c(NC(=O)c2sccc2S(=O)(=O)Nc2onc(C)c2Cl)c(C#N)c1C [Compound 32, 3-{[(4-chloro-3-methyl-5-isoxazolyl)amino]sulfonyl}-N-(2-cyano-3,4,6-trimethylphenyl)-2-thiophenecarboxamide] |  | 55.7
10 | Cc1cc(C)c(CC(=O)c2sccc2S(=O)(=O)Nc2onc(C)c2Cl)c(C)c1 [3-{[(4-chloro-3-methyl-5-isoxazolyl)amino]sulfonyl}-2-(2,4,6-trimethylphenylacetyl)thiophene] |  | 6.4

The next lines start with the values.

Row | melting point | ETA ACTIVITY (ETA antagonist activity relative to reference compound) (human ETA receptors) | SMILES
11 | 163 to 167 °C | 0.1 | CCCc1c(O)c(C(C)=O)cc(C(C)=O)c1NC(=O)c1sccc1S(=O)(=O)Nc1onc(C)c1Cl [Compound 36]
12 |  | 0.05 | Cc1cc(C)c(NC(=O)c2sccc2S(=O)(=O)Nc2onc(C)c2Cl)c(C(=O)O)c1 [3-{[(4-chloro-3-methyl-5-isoxazolyl)amino]sulfonyl}-N-(2-carboxyl-4,6-dimethylphenyl)-2-thiophenecarboxamide]
13 | 140 to 145 °C | 23.6 | CO/N=C(\C)c1cc(C)cc(C)c1NC(=O)c1sccc1S(=O)(=O)Nc1onc(C)c1Cl [Compound 22, 3-{[(4-chloro-3-methyl-5-isoxazolyl)amino]sulfonyl}-N-{2,4-dimethyl-6-[(methyloxy)ethanimidoyl]phenyl}-2-thiophene carboxamide]
14 | 152 to 155 °C |  | CCCS(=O)(=O)c1cc(C)cc(C)c1NC(=O)c1sccc1S(=O)(=O)Nc1onc(C)c1Cl [Compound 48, 3-{[(4-chloro-3-methyl-5-isoxazolyl)amino]sulfonyl)-N-[2,4-dimethyl-6-(propylsulfonyl)phenyl]-2-thiophenecarboxamide]
15 | 223 to 225 °C | 103.8 | CC(=O)c1c(C)c(C)cc(C)c1NC(=O)c1sccc1S(=O)(=O)Nc1onc(C)c1Cl [Compound 30, N-(2-acetyl-3,4,6-trimethylphenyl)-3-{[(4-chloro-3-methyl-5-isoxazolyl)amino]sulfonyl}-2-thiophenecarboxamide]
16 | 152 to 154 °C | 3.8 | CCc1cc(C)cc(C)c1NC(=O)c1sccc1S(=O)(=O)Nc1onc(C)c1Cl [Compound 50, 3-{[(4-chloro-3-methyl-5-isoxazolyl)amino]sulfonyl}-N-(2-ethyl-4,6-dimethylphenyl)-2-thiophenecarboxamide]
17 |  | 18.6 | Cc1cc(C)c(NC(=O)c2sccc2S(=O)(=O)Nc2onc(C)c2C)c(C#N)c1C [Compound 9, N-(2-cyano-3,4,6-trimethylphenyl)-3-{[(3,4-dimethyl-5-isoxazolyl)amino]sulfonyl}-2-thiophenecarboxamide]
18 | 169 to 174 °C |  | Cc1cc(C)c(OS(=O)(=O)N(C)C)c(C)c1NC(=O)c1sccc1S(=O)(=O)Nc1onc(C)c1Cl [Compound 24, 3-{[(3-{[(4-chloro-3-methyl-5-isoxazolyl)amino]sulfonyl}-2-thiophenyl)carbonyl]amino}-2,4,6-trimethylphenyl-N,N-dimethylsulfamate]
19 |  | 0.05 | CC(=O)c1cc2c(cc1NC(=O)c1sccc1S(=O)(=O)Nc1onc(C)c1C)OCO2 [3-{[(3,4-dimethyl-5-isoxazolyl)amino]sulfonyl}-N-(2-acetyl-4,5-methylenedioxyphenyl)-2-thiophenecarboxamide]
20 |  | 0.15 | CC(=O)c1cc2c(cc1NC(=O)c1sccc1S(=O)(=O)Nc1onc(C)c1Cl)OCO2 [3-{[(4-chloro-3-methyl-5-isoxazolyl)amino]sulfonyl}-N-(2-acetyl-4,5-methylenedioxyphenyl)-2-thiophenecarboxamide]
21 |  | 14.4 | Cc1cc(C)c(NC(=O)c2sccc2S(=O)(=O)Nc2onc(C)c2Cl)c(C(=O)N(C)C)c1 [Compound 20, 3-{[(4-chloro-3-methyl-5-isoxazolyl)amino]sulfonyl}-N-{2-[(dimethylamino)carbonyl]-4,6-dimethylphenyl)-2-thiophene carboxamide]
